SMILES strings stand for the structures. Where two headings read alike, the source gives them in different places. Some results are limits rather than exact numbers.

Assay [1] has as its target T1, Human M3 receptor (Homo sapiens, UniProt P20309).
T1 construct: purchased Perkin Elmer
The assay can be described thus: M3 Receptor Radioligand Binding Assay. The method, boiled down:
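Radioligand binding with 0.5% (v/v) final DMSO, incubated 2 h at room temperature with shaking. Membranes were collected on GF/C filters pre-treated with 0.5% polyethyleneimine, washed four times with assay buffer, and counted by scintillation.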

Assay [2] deals with T2, Human β2 adrenoceptor (Homo sapiens, UniProt P07550).
T2 construct: purchased Perkin Elmer
The assay can be described thus: β2 Adrenoceptor Radioligand Binding Assay. Put shortly:
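Membranes were incubated 1 h at room temperature in 25 mM HEPES, 0.5% BSA, 1 mM EDTA, 0.02% ascorbic acid, pH 7.4, with 0.5% DMSO final. Bound radioligand was collected by GF/C filtration and counted by scintillation. IC50 values from competition curves were converted to Ki by Cheng–Prusoff.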

The mark [3] stands for this setting: human M3 receptor membranes, [3H]-N-methyl scopolamine, read-out: M3 binding affinity (Ki class).
Setting [4] is: human β2 adrenoceptor membranes, 125-I Cyanopindolol, read-out: B2 binding affinity (Ki class).

T2 sequence (P07550 whole entry): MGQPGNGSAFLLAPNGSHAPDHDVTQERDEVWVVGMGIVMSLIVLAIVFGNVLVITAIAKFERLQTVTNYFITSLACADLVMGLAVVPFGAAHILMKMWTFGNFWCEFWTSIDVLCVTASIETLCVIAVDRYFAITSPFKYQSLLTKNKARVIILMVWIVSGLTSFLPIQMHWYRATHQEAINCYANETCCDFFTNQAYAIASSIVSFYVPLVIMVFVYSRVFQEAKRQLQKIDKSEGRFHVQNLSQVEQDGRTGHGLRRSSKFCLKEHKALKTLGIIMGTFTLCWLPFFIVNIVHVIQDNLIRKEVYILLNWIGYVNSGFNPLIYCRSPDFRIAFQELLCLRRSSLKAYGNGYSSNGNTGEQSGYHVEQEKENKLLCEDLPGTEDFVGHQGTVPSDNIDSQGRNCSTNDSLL
T1 sequence (P20309 whole entry): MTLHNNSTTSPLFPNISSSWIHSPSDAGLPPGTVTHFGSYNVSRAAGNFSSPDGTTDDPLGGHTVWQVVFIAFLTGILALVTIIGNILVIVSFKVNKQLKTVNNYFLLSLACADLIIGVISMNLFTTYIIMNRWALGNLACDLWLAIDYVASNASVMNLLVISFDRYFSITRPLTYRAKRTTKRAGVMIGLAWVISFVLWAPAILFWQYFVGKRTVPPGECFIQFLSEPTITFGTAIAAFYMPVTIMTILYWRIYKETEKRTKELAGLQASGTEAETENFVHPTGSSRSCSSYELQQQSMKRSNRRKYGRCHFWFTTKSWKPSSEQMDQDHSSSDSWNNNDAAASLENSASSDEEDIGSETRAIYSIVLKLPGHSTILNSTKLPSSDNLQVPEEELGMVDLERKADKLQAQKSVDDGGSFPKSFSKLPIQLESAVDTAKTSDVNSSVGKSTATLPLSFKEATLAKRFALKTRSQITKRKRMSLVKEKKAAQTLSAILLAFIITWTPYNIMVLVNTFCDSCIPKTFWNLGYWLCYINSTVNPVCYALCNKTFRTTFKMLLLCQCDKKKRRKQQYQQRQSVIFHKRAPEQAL

For the compound `CCN(CCCNC[C@H](O)c1ccc(O)c2[nH]c(=O)ccc12)C(=O)c1ccc(CCC(=O)N2CCC(C(=O)O[C@H]3CN4CCC3CC4)(c3ccccc3)CC2)cc1` [Compound 52, (R)-Quinuclidin-3-yl 1-(3-(4-(ethyl(3-(((R)-2-hydroxy-2-(8-hydroxy-2-oxo-1,2-dihydroquinolin-5-yl)ethyl)amino)propyl)carbamoyl)phenyl)propanoyl)-4-phenylpiperidine-4-carboxylate], the Ki (commonly the dissociation constant of the complex between target and ligand, obtained from inhibition or displacement) in assay [1] (setting [3]) was 1 to 10 nM; in assay [2] (setting [4]) it was below 1 nM.
In the case of `CN(CCCNC[C@H](O)c1ccc(O)c2[nH]c(=O)ccc12)C(=O)c1ccc(CCC(=O)N2CCC(C(=O)O[C@H]3CN4CCC3CC4)(c3ccccc3)CC2)cc1` [Compound 53, (R)-Quinuclidin-3-yl 1-(3-(4-((3-(((R)-2-hydroxy-2-(8-hydroxy-2-oxo-1,2-dihydroquinolin-5-yl)ethyl)amino)propyl)(methyl)carbamoyl)phenyl)propanoyl)-4-phenylpiperidine-4-carboxylate], the Ki in assay [1] (setting [3]) and in assay [2] (setting [4]) was 1 to 10 nM in each case.
For `O=C(CCc1ccc(C(=O)N(CCCNC[C@H](O)c2ccc(O)c3[nH]c(=O)ccc23)Cc2ccccc2)cc1)N1CCC(C(=O)O[C@H]2CN3CCC2CC3)(c2ccccc2)CC1` [Compound 54, (R)-Quinuclidin-3-yl 1-(3-(4-(benzyl(3-(((R)-2-hydroxy-2-(8-hydroxy-2-oxo-1,2-dihydroquinolin-5-yl)ethyl)amino)propyl)carbamoyl)phenyl)propanoyl)-4-phenylpiperidine-4-carboxylate], the inhibition constant Ki in assay [1] (setting [3]) and in assay [2] (setting [4]) was 1 to 10 nM throughout.
Regarding `O=C(Cc1ccc(OCc2ccc(CNC[C@H](O)c3ccc(O)c4[nH]c(=O)ccc34)cc2)cc1)N1CCC(C(=O)O[C@H]2CN3CCC2CC3)(c2ccccc2)CC1` [Compound 55, (R)-Quinuclidin-3-yl 1-(2-(4-((4-((((R)-2-hydroxy-2-(8-hydroxy-2-oxo-1,2-dihydroquinolin-5-yl)ethyl)amino)methyl)benzyl)oxy)phenyl)acetyl)-4-phenylpiperidine-4-carboxylate], the Ki in assay [1] (setting [3]) and in assay [2] (setting [4]) was below 1 nM in each case.
Regarding `O=C(CCc1ccc(OCc2ccc(CNC[C@H](O)c3ccc(O)c4[nH]c(=O)ccc34)cc2)cc1)N1CCC(C(=O)O[C@H]2CN3CCC2CC3)(c2ccccc2)CC1` [Compound 56, (R)-Quinuclidin-3-yl 1-(3-(4-((4-((((R)-2-hydroxy-2-(8-hydroxy-2-oxo-1,2-dihydroquinolin-5-yl)ethyl)amino)methyl)benzyl)oxy)phenyl)propanoyl)-4-phenylpiperidine-4-carboxylate], the Ki in assay [1] (setting [3]) is 1 to 10 nM; in assay [2] (setting [4]), below 1 nM.
As to `CC(=O)N(Cc1ccc(CNC[C@H](O)c2ccc(O)c3[nH]c(=O)ccc23)cc1)Cc1ccc(C(=O)N2CCC(C(=O)O[C@H]3CN4CCC3CC4)(c3ccccc3)CC2)cc1` [Compound 57, (R)-Quinuclidin-3-yl 1-(4-((N-(4-((((R)-2-hydroxy-2-(8-hydroxy-2-oxo-1,2-dihydroquinolin-5-yl)ethyl)amino)methyl)benzyl)acetamido)methyl)benzoyl)-4-phenylpiperidine-4-carboxylate], the figures for the Ki in assay [1] (setting [3]) and in assay [2] (setting [4]) were below 1 nM and 1 to 10 nM, respectively.
The corresponding values for `CS(=O)(=O)N(Cc1ccc(CNC[C@H](O)c2ccc(O)c3[nH]c(=O)ccc23)cc1)Cc1ccc(C(=O)N2CCC(C(=O)O[C@H]3CN4CCC3CC4)(c3ccccc3)CC2)cc1` [Compound 58, (R)-Quinuclidin-3-yl 1-(4-((N-(4-((((R)-2-hydroxy-2-(8-hydroxy-2-oxo-1,2-dihydroquinolin-5-yl)ethyl)amino)methyl)benzyl)methylsulfonamido)-methyl)benzoyl)-4-phenylpiperidine-4-carboxylate] are 1 to 10 nM and 1 to 10 nM.
Regarding `O=C(c1ccc(CN(Cc2ccc(CNC[C@H](O)c3ccc(O)c4[nH]c(=O)ccc34)cc2)C(=O)c2ccccc2)cc1)N1CCC(C(=O)O[C@H]2CN3CCC2CC3)(c2ccccc2)CC1` [Compound 59, (R)-Quinuclidin-3-yl 1-(4-((N-(4-((((R)-2-hydroxy-2-(8-hydroxy-2-oxo-1,2-dihydroquinolin-5-yl)ethyl)amino)methyl)benzyl)benzamido)methyl)benzoyl)-4-phenylpiperidine-4-carboxylate], the Ki in assay [1] was below 1 nM; in assay [2], above 10 nM.
Take `O=C(c1ccc(CN(Cc2ccc(CNC[C@H](O)c3ccc(O)c4[nH]c(=O)ccc34)cc2)C(=O)C2CC2)cc1)N1CCC(C(=O)O[C@H]2CN3CCC2CC3)(c2ccccc2)CC1` [Compound 60, (R)-Quinuclidin-3-yl 1-(4-((N-(4-((((R)-2-hydroxy-2-(8-hydroxy-2-oxo-1,2-dihydroquinolin-5-yl)ethyl)amino)methyl)benzyl)cyclopropanecarboxamido)-methyl)benzoyl)-4-phenylpiperidine-4-carboxylate]: the inhibition constant Ki in assay [1] (setting [3]) is below 1 nM; in assay [2] (setting [4]) it was 1 to 10 nM.
`O=C(c1ccc(CN(Cc2ccc(CNC[C@H](O)c3ccc(O)c4[nH]c(=O)ccc34)cc2)S(=O)(=O)c2ccccc2)cc1)N1CCC(C(=O)O[C@H]2CN3CCC2CC3)(c2ccccc2)CC1` [Compound 61, (R)-Quinuclidin-3-yl 1-(4-((N-(4-((((R)-2-hydroxy-2-(8-hydroxy-2-oxo-1,2-dihydroquinolin-5-yl)ethyl)amino)methyl)benzyl)phenylsulfonamido)-methyl)benzoyl)-4-phenylpiperidine-4-carboxylate]: the Ki is below 1 nM in assay [1] and above 10 nM in assay [2].
With `COC(=O)N(Cc1ccc(CNC[C@H](O)c2ccc(O)c3[nH]c(=O)ccc23)cc1)Cc1ccc(C(=O)N2CCC(C(=O)O[C@H]3CN4CCC3CC4)(c3ccccc3)CC2)cc1` [Compound 62, (R)-Quinuclidin-3-yl 1-(4-(((4-((((R)-2-hydroxy-2-(8-hydroxy-2-oxo-1,2-dihydroquinolin-5-yl)ethyl)amino)methyl)benzyl)(methoxycarbonyl)amino)-methyl)benzoyl)-4-phenylpiperidine-4-carboxylate], the Ki in assay [1] (setting [3]) is below 1 nM; in assay [2] (setting [4]), 1 to 10 nM.
For the compound `CNC(=O)N(Cc1ccc(CNC[C@H](O)c2ccc(O)c3[nH]c(=O)ccc23)cc1)Cc1ccc(C(=O)N2CCC(C(=O)O[C@H]3CN4CCC3CC4)(c3ccccc3)CC2)cc1` [Compound 63, (R)-Quinuclidin-3-yl 1-(4-((1-(4-((((R)-2-hydroxy-2-(8-hydroxy-2-oxo-1,2-dihydroquinolin-5-yl)ethyl)amino)methyl)benzyl)-3-methylureido)methyl)benzoyl)-4-phenylpiperidine-4-carboxylate], the Ki in assay [1] (setting [3]) is below 1 nM; in assay [2] (setting [4]), 1 to 10 nM.
As for `O=C(c1ccc(COCc2ccc(CNC[C@H](O)c3ccc(O)c4[nH]c(=O)ccc34)cc2)cc1)N1CCC(C(=O)O[C@H]2CN3CCC2CC3)(c2ccccc2)CC1` [Compound 64, (R)-Quinuclidin-3-yl 1-(4-(((4-((((R)-2-hydroxy-2-(8-hydroxy-2-oxo-1,2-dihydroquinolin-5-yl)ethyl)amino)methyl)benzyl)oxy)methyl)benzoyl)-4-phenylpiperidine-4-carboxylate], the Ki is below 1 nM in assay [1] (setting [3]) and 1 to 10 nM in assay [2] (setting [4]).

(Values after patent publication US9662323B2, “Compounds having muscarinic receptor antagonist and beta2 adrenergic receptor agonist activity” (CHIESI FARMACEUTICI S.p.A., priority 2015, dated 2017).)
